Test results: article PMC9330635, “Halogenated Pyrrolopyrimidines with Low MIC on Staphylococcus aureus and Synergistic Effects with an Antimicrobial Peptide” (Antibiotics, 2022)
Values after ≈ are worked out from the molar mass of the structure shown. Like-named read-outs stand apart in the source and are kept apart here.

Columns and labels:
E. coli (MG1655) = experiment: MIC by broth microdilution, E. coli; assay type: cell-based, Escherichia coli; conditions: E. coli MG1655, broth microdilution; for MIC: Escherichia coli
Experimental: (§1) In this study, we have, therefore, altered our strategy and used minimal inhibitory concentration assays to identify and improve antibacterial agents. A total of 10 pyrrolopyrimidines with variation of the 4-amino group were assayed for their MIC in E. coli (MG1655) and S. aureus (ATCC29213) using the broth microdilution method. Subsequently, the compounds were also counter-screened for their inhibition of human EGFR.
(§2) The MIC of compound 1–21 towards Escherichia coli (MG1655) and Staphylococcus aureus (ATCC29213) was determined following the standards that were recommended by the Clinical and Laboratory Standards Institute (CLSI) for the broth microdilution method. Briefly, the bacterial suspensions were adjusted to 0.5 McFarland standard (~1 × 10^8 colony forming units (CFU)/mL) and diluted 1:200 in Cation-Adjusted Mueller-Hinton Broth (CAMHB, […], […]). The suspension was subsequently added to polypropylene microtiter plates (100 µL/well, ~5 × 10^4 CFU/well) that were already prepared with different concentrations of the various halogenated fused pyrimidines (11 µL/well, two-fold serial dilutions). The plates were incubated at 37 °C overnight before inspection for visible growth and determination of the MIC values.

S. aureus (ATCC29213) = experiment: MIC by broth microdilution, S. aureus; assay type: cell-based, Staphylococcus aureus; conditions: for MIC: Staphylococcus aureus; for Activity towards S. aureus (in words): culture, MIC assay
Experimental: as §1, §2

S. aureus = experiment: MIC towards S. aureus in combination with the peptide betatide; assay type: cell-based, Staphylococcus aureus; conditions: betatide 8 mg/L (half its MIC)
Experimental: The concentration of betatide was 8 mg/L, which corresponds to half the MIC concentration.
as §2

human EGFR = target: T1, human EGFR (Homo sapiens, UniProt P00533); experiment: Enzymatic EGFR (ErbB1) inhibition, Z'-LYTE; assay type: biochemical; conditions: 100 nM compound, ATP equal to KM
T1 construct: purchased Invitrogen (ThermoFisher), assay service
Experimental: The compounds were supplied in a 10 mM DMSO solution, and enzymatic EGFR (ErbB1) inhibition potency was determined by Invitrogen (ThermoFisher) using their Z’-LYTE® assay technology. The compounds were tested for their inhibitory activity at 100 nM in duplicates. The IC50 values that were reported for 1 and 5 are based on the average of 2 titration curves (20 data points), and were calculated from activity data with a four-parameter logistic model using SigmaPlot (Windows Version 12.0 from Systat Software, Inc., Palo Alto, CA, USA). Unless stated otherwise, the ATP concentration that was used was equal to apparent KM.

[1] = ATCC29213, S. aureus, single agent (Table 3), read-out: Single Comp. MIC
[2] = S. aureus ATCC29213, broth microdilution, read-out: S. aureus MIC

Compound | melting point | MIC (E. coli (MG1655)) | MIC (S. aureus (ATCC29213); [1]) | MIC (S. aureus (ATCC29213); [2]) | Combination with Betatide MIC (S. aureus) | inhibition at 0.1 µM (human EGFR) | Activity towards S. aureus (in words) (S. aureus (ATCC29213)) | E. coli MIC (E. coli (MG1655)) | S. aureus MIC (S. aureus (ATCC29213); S. aureus ATCC29213, broth microdilution) | Human EGFR % inhibition (human EGFR)
C[C@@H](Nc1ncnc2sc(-c3ccc(O)cc3)cc12)c1ccc(Br)cc1 (hydrate or solvate) [Compound 21, (R)-4-(4-((1-(4-Bromophenyl)ethyl)amino)thieno[2,3-d]pyrimidin-6-yl)phenol] | 144.1 to 145.4 °C |  |  |  |  |  |  |  |  | 
Oc1ccc(-c2cc3c(NCc4ccc(Br)cc4)ncnc3[nH]2)cc1 [Compound 8, 4-(4-((4-Bromobenzyl)amino)-7H-pyrrolo[2,3-d]pyrimidin-6-yl)phenol] |  | > 128 µg/mL |  | > 128 µg/mL |  | 67% | abolished all activity |  |  | 
C[C@@H](Nc1ncnc2[nH]c(-c3ccccc3)cc12)c1ccc(Br)cc1 [Compound 12, (R)-N-(1-(4-Bromophenyl)ethyl)-6-phenyl-7H-pyrrolo[2,3-d] pyrimidin-4-amine] |  | > 128 µg/mL |  | > 128 µg/mL |  | 66% |  |  |  | 
COC(=O)c1ccc(-c2cc3c(N[C@H](C)c4ccc(Br)cc4)ncnc3[nH]2)cc1 [Compound 16, Methyl (R)-4-(4-((1-(4-bromophenyl)ethyl)amino)-7H-pyrrolo[2,3-d]pyrimidin-6-yl)be-nzoate] |  | > 128 µg/mL |  | > 128 µg/mL |  | 42% |  |  |  | 
C[C@@H](Nc1ncnc2[nH]c(-c3ccc(S(N)(=O)=O)cc3)cc12)c1ccc(Br)cc1 [Compound 17, (R)-4-(4-((1-(4-Bromophenyl)ethyl)amino)-7H-pyrrolo[2,3-d]pyrimidin-6-yl)benzene-sulfonamide] |  | > 128 µg/mL |  | > 128 µg/mL |  | 85% |  |  |  | 
C[C@@H](Nc1ncnc2[nH]c(-c3ccccc3O)cc12)c1ccc(Br)cc1 [Compound 18, (R)-2-(4-((1-(4-Bromophenyl)ethyl)amino)-7H-pyrrolo[2,3-d]pyrimidin-6-yl)phenol] |  | > 128 µg/mL |  | > 128 µg/mL |  | 80% |  |  |  | 
COc1ccc(-c2cc3c(N[C@H](C)c4ccc(Br)cc4)ncnc3s2)cc1 [Compound 20, (R)-N-(1-(4-Bromophenyl)ethyl)-6-(4-methoxyphenyl)thieno [2,3-d] pyrimidin-4-amine] | 107.1 to 109.4 °C | > 128 µg/mL |  | > 128 µg/mL |  | 12% | no activity |  |  | 
C[C@@H](Nc1ncnc2sc(-c3ccc(O)cc3)cc12)c1ccc(Br)cc1 [Compound 21, (R)-4-(4-((1-(4-Bromophenyl)ethyl)amino)thieno[2,3-d]pyrimidin-6-yl)phenol] |  | > 128 µg/mL | 32 µg/mL (≈ 75.1 µM) | 32 µg/mL (≈ 75.1 µM) | 4 µg/mL | 5% |  |  |  | 
(R)-4-(4-((1-(4-Bromophenyl)ethyl)(methyl)amino)-7H-pyrrolo [2,3-d]pyrimidin-6-yl)phenol [Compound 10] |  |  |  |  |  |  | abolished all activity | >128 µg/mL | >128 µg/mL | 16%

Further lines, with some results ahead:

melting point | MIC (E. coli (MG1655)) | MIC (S. aureus (ATCC29213); [1]) | MIC (S. aureus (ATCC29213); [2]) | Combination with Betatide MIC (S. aureus) | inhibition at 0.1 µM (human EGFR) | Compound | Activity towards S. aureus (in words) (S. aureus (ATCC29213)) | E. coli MIC (E. coli (MG1655)) | S. aureus MIC (S. aureus (ATCC29213); S. aureus ATCC29213, broth microdilution) | Human EGFR % inhibition (human EGFR)
254.9 to 256 °C (dec.) |  |  |  |  |  | C[C@@H](Nc1ncnc2[nH]c(-c3ccc(O)cc3)cc12)c1ccc(I)cc1 (hydrate or solvate) [Compound 6, (R)-4-(4-((1-(4-Iodophenyl)ethyl)amino)-7H-pyrrolo[2,3-d]pyrimidin-6-yl)phenol] |  |  |  | 
 | > 128 µg/mL | 16 µg/mL (≈ 46.5 µM) | 16 µg/mL (≈ 46.5 µM) | 8 µg/mL | 91% | Cc1ccc([C@@H](C)Nc2ncnc3[nH]c(-c4ccc(O)cc4)cc23)cc1 [Compound 2, (R)-4-(4-((1-(p-Tolyl)ethyl)amino)-7H-pyrrolo[2,3-d]pyrimidin-6-yl)phenol] |  |  |  | 
 | > 128 µg/mL |  | > 128 µg/mL |  | 92% | C[C@@H](Nc1ncnc2[nH]c(-c3ccc(O)cc3)cc12)c1ccc(F)cc1 [Compound 3] | inactive |  |  | 
216.6 °C (dec.) | > 128 µg/mL | 16 µg/mL (≈ 43.9 µM) | 16 µg/mL (≈ 43.9 µM) | 4 µg/mL | 91% | C[C@@H](Nc1ncnc2[nH]c(-c3ccc(O)cc3)cc12)c1ccc(Cl)cc1 [Compound 4, (R)-4-(4-((1-(4-Chlorophenyl)ethyl)amino)-7H-pyrrolo[2,3-d]pyrimidin-6-yl)phenol] |  |  |  | 
 | > 128 µg/mL | 8 µg/mL (≈ 17.5 µM) | 8 µg/mL (≈ 17.5 µM) | 2 µg/mL | 43% | C[C@@H](Nc1ncnc2[nH]c(-c3ccc(O)cc3)cc12)c1ccc(I)cc1 [Compound 6, (R)-4-(4-((1-(4-Iodophenyl)ethyl)amino)-7H-pyrrolo[2,3-d]pyrimidin-6-yl)phenol] |  |  |  | 
 | > 128 µg/mL | 16 µg/mL (≈ 39.1 µM) | 16 µg/mL (≈ 39.1 µM) | 4 µg/mL | 89% | C[C@@H](Nc1ncnc2[nH]c(-c3ccc(O)cc3)cc12)c1cccc(Br)c1 [Compound 7, (R)-4-(4-((1-(3-Bromophenyl)ethyl)amino)-7H-pyrrolo[2,3-d]pyrimidin-6-yl)phenol] |  |  |  | 
 | > 128 µg/mL |  | > 128 µg/mL |  |  | C[C@H](Nc1ncnc2[nH]c(-c3ccc(O)cc3)cc12)c1ccc(Br)cc1 [Compound 9, (S)-4-(4-((1-(4-Bromophenyl)ethyl)amino)-7H-pyrrolo[2,3-d]pyrimidin-6-yl)phenol] | abolished all activity |  |  | 
 | > 128 µg/mL |  | > 128 µg/mL |  |  | COc1ccc(-c2cc3c(N[C@@H](C)c4ccc(Br)cc4)ncnc3[nH]2)cc1 [Compound 11, (S)-N-(1-(4-Bromophenyl)ethyl)-6-(4-methoxyphenyl)-7H-pyrrolo[2,3-d]pyrimidin-4-amine] |  |  |  | 
 | > 128 µg/mL |  | > 128 µg/mL |  | 58% | C[C@@H](Nc1ncnc2[nH]c(-c3ccc(F)cc3)cc12)c1ccc(Br)cc1 [Compound 13, (R)-N-(1-(4-Bromophenyl)ethyl)-6-(4-fluorophenyl)-7H-pyrrolo[2,3-d] pyrimidin-4-amine] |  |  |  | 
 | > 128 µg/mL |  | > 128 µg/mL |  | 33% | C[C@@H](Nc1ncnc2[nH]c(-c3ccc([N+](=O)[O-])cc3)cc12)c1ccc(Br)cc1 [Compound 14, (R)-N-(1-(4-Bromophenyl)ethyl)-6-(4-nitrophenyl)-7H-pyrrolo [2,3-d] pyrimidin-4-amine] |  |  |  | 
 | > 128 µg/mL |  | > 128 µg/mL |  | 90% | C[C@@H](Nc1ncnc2[nH]c(-c3ccc(N)cc3)cc12)c1ccc(Br)cc1 [Compound 15, (R)-6-(4-Aminophenyl)-N-(1-(4-bromophenyl)ethyl)-7H-pyrrolo[2,3-d]pyrimidin-4-amine] |  |  |  | 
 | > 128 µg/mL | 8 µg/mL (≈ 19.5 µM) | 16 µg/mL (≈ 39.1 µM) | 2 µg/mL | 73% | C[C@@H](Nc1ncnc2[nH]c(-c3cccc(O)c3)cc12)c1ccc(Br)cc1 [Compound 19, (R)-3-(4-((1-(4-Bromophenyl)ethyl)amino)-7H-pyrrolo[2,3-d]pyrimidin-6-yl)phenol] |  |  |  | 
